Reference: patent US5236901A, “Treatment for irritable bowel syndrome” (Research Corporation Technologies, Inc., priority 1991, dated 1993)
No end group written: not given here.

Columns and labels:
plasma ACTH = assay: Plasma ACTH concentrations by radioimmunoassay after CRF; format: in vivo, rat; conditions: CRF 0.3 ug i.v.; for Plasma ACTH Concentration: mean ± SE
Procedure: CRF and alpha-helical CRF-(9-41) are purchased from Bachem. Drugs are diluted in distilled water, and NaOH (0.1 N) added to the solution, 1 ul at a time, until the compounds [CRF and alpha-helical CRF-(9-41)]go into solution, at a pH of ~6.8. The solutions are aliquotted into 25- and 50-ug supplies, lyophilized, and stored in a desiccator at 4°-8° C. until needed. Radioimmunoassay kits for determination of plasma levels of ACTH are purchased from ImmunoNuclear.
The following example compares the endocrine response to a low dose of exogenous CRF (0.3 ug i.v.) and to stress-induced release of endogenous CRF by measuring plasma ACTH concentrations by radioimmunoassay in animals that are wrap restrained or treated with CRF.
Blood is drawn from an indwelling jugular cannula, surgically placed under Equithesin anesthesia 3 days earlier. Blood (0.2 ml) is drawn 10 minutes before treatment, as well as 5, 10, 20, 30, 45, and 60 minutes after CRF administration or wrap-restraint stress. Blood is also drawn at the same time points from control animals are briefly ether anesthetized but which are not stressed or drug treated.

Sprague-Dawley rats [1] = assay: Gastric emptying of 51Cr after exogenous CRF; format: in vivo, rat; conditions: CRF 1.0 to 10.0 ug i.v. or i.c.v.; FIG. 1A
Procedure: (§1) Female Sprague-Dawley rats (150-200 g) are used in all tests described herein. The animals are housed in groups of five in a temperature-controlled room on a 12 hour light-dark cycle (7:00 AM to 7:00 PM) and are allowed water and rat chow ad libitum. Animals are allowed at least one week to recover from shipping before experiments are performed. Gastrointestinal transit, a measure of the propulsive motor activity of the intestine, is evaluated by the geometric center method (Miller et al., 1981, J. Pharmacol. Methods 6:211-217), in which a nonabsorable radioactive marker, ^51 Cr (0.2 ml) as sodium chromate in distilled water, is instilled directly into the proximal duodenum and proximal colon via Silastic cannulas surgically implanted under Equithesin anesthesia 3-5 days earlier. Thirty-five minutes after administration of the chromium, the animals are killed, and the stomach and intestine are removed and counted for gamma radiation. Gastric emptying is evaluated by quantitating the percent radioactivity emptied from the stomach in a 15 minute period. Radiochromium in distilled water (0.2 ml) is administered by oral gavage, and the animals are killed and emptying assessed 15 minutes later. CRF or vehicle is administered intravenously or intracerebroventricularly immediately before ^51 Cr.

Sprague-Dawley rats [2] = assay: Small and large intestinal transit (geometric center method) and fecal output after exogenous CRF; format: in vivo, rat
Procedure: as §1

Sprague-Dawley rats [3] = assay: Wrap-restraint stress-induced intestinal dysfunction, antagonist pretreatment; format: in vivo, rat
Procedure: as §1, with “Gastrointestinal” for “Female Sprague-Dawley rats (150-200 g) are used in all tests described herein. The animals are housed in groups of five in a temperature-controlled room on a 12 hour light-dark cycle (7:00 AM to 7:00 PM) and are allowed water and rat chow ad libitum. Animals are allowed at least one week to recover from shipping before experiments are performed. Gastrointestinal”
Wrapping-restraint stress, a relatively mild, nonulcerogenic model of restraint is used in all stress studies. Stressed animals are lightly anesthetized with ether, and their trunk, shoulders, and upper forelimbs are wrapped in a confining harness of masking tape. Control animals are lightly ether anesthetized but are not wrapped. Radiochromium is then administered, and the animals are killed 35 minutes later to assess intestinal transit. All stress experiments are performed in the late afternoon (4:00 to 7:00 PM) due to a strong circadian influence on the degree of intestinal dysfunction associated with stress at different times of the day. […]

Sprague-Dawley rats [4] = assay: Intestinal transit after alpha-helical CRF-(9-41) alone or against exogenous CRF; format: in vivo, rat
Procedure: as §1, with “Gastrointestinal” for “Female Sprague-Dawley rats (150-200 g) are used in all tests described herein. The animals are housed in groups of five in a temperature-controlled room on a 12 hour light-dark cycle (7:00 AM to 7:00 PM) and are allowed water and rat chow ad libitum. Animals are allowed at least one week to recover from shipping before experiments are performed. Gastrointestinal”
Since CRF is likely to play an essential role in initiating both endocrine and autonomic responses to stress, it is probable that CRF mediates the effects of stress on the gut and that blockade of CRF receptors would lessen stress-induced disordered transit. […] The antagonist, alpha-helical CRF-[…] (50 ug, i.v. or i.c.v.), has no effect on small or larger intestinal transit itself when administered into the brain or the bloodstream.

pituitary ACTH release = conditions: Rivier et al., 1984, cited from earlier work
[5] = antagonist 50 ug i.v. or i.c.v., CRF 3 and 10 ug i.v. or i.c.v., same route

Substance: Corticotropin-releasing factor (SQEPPISLDLTFHLLREVLEMTKADQLAQQAHSNRKLLDIA; ends and bridges not checked; UniProt P01142 148-188, looked up) [CRF, peptide comprising 41 amino acid residues, first characterized from ovine hypothalamic extracts; purchased from Bachem]
- Peak levels of ACTH compared with wrap-restraint stress (plasma ACTH): very similar
- Time course of ACTH release compared with stress-induced ACTH release (plasma ACTH): more rapid time course
- Plasma ACTH Concentration (plasma ACTH; 5 minutes after administration): 619 ± 70 pg/mL
- Plasma ACTH Concentration (plasma ACTH; 10 minutes after administration): 494 ± 108 pg/mL
- Plasma ACTH Concentration (plasma ACTH; 20 minutes after administration): 265 ± 93 pg/mL
- Plasma ACTH Concentration (plasma ACTH; 30 minutes after administration): 174 ± 24 pg/mL
- Plasma ACTH Concentration (plasma ACTH; 45 minutes after administration): 146 ± 33 pg/mL
- Plasma ACTH Concentration (plasma ACTH; 60 minutes after administration): 141 ± 49 pg/mL
- Plasma ACTH Concentration (plasma ACTH; time head +10 (10 minutes before treatment)): 64 ± 4 pg/mL
- Gastric emptying (Sprague-Dawley rats [1]): inhibited in a dose-dependent manner
- Response of the gut to CRF compared with restraint stress (Sprague-Dawley rats [2]; CRF 0.3 ug i.c.v., gastric emptying, small and large intestinal transit, fecal pellet output, FIG. 2): identical both in direction and degree
- Fecal pellet output (Sprague-Dawley rats [2]; CRF 0.3 to 10.0 ug): increased
- Small intestinal transit (Sprague-Dawley rats [2]; CRF 0.3 to 10.0 ug i.v. or i.c.v., FIG. 1B): inhibits
- Colonic transit (Sprague-Dawley rats [2]; CRF 0.3 to 10.0 ug i.v. or i.c.v., FIG. 1C): increases
- Diarrhea (Sprague-Dawley rats [2]; CRF at higher doses): diarrhea
- Lowest effective dose (Sprague-Dawley rats [2]; i.c.v., gastric and intestinal effects): 0.3 µg
- Effectiveness of i.v. versus i.c.v. administration (Sprague-Dawley rats [2]; intravenously versus intracerebroventricularly administered CRF): equally effective

Substance: alpha-helical CRF-(9-41)
- Stress-induced inhibition of small intestinal transit (Sprague-Dawley rats [3]; 50 ug i.c.v. or i.v. immediately before stress, FIG. 3A): did not affect
- Stress-induced increase in large intestinal transit (Sprague-Dawley rats [3]; 50 ug i.c.v. or i.v. immediately before stress, FIG. 3B): completely blocked
- Stress-induced increase in fecal pellet output (Sprague-Dawley rats [3]; 50 ug i.c.v. or i.v. immediately before stress, FIG. 3C): significantly diminished
- Stress-induced increase in colonic transit, higher dose versus 50 ug (Sprague-Dawley rats [3]; 100 μg i.c.v.): did not result in a further decrease
- Stress-induced increase in fecal excretion, higher dose versus 50 ug (Sprague-Dawley rats [3]; 100 μg i.c.v.): did not result in a further decrease
- Stress-induced inhibition of small intestinal transit (Sprague-Dawley rats [3]; 100 μg i.c.v.): did not affect
- Large intestinal transit, antagonist alone (Sprague-Dawley rats [4]; 50 ug, i.v. or i.c.v.): has no effect
- Small intestinal transit, antagonist alone (Sprague-Dawley rats [4]; 50 ug, i.v. or i.c.v.): has no effect
- Effects of exogenous CRF on large intestinal transit (Sprague-Dawley rats [4]; [5]): effectively antagonizes
- Effects of exogenous CRF on small intestinal transit (Sprague-Dawley rats [4]; [5]): effectively antagonizes
- Agonist activity (pituitary ACTH release): little agonist activity
- Effects of CRF and stress on pituitary ACTH release (pituitary ACTH release; both in vivo and in vitro): effectively antagonizes
